Source: ChEMBL document CHEMBL3991601, “The target landscape of clinical kinase drugs” (Science, 2017)
Calls of active or inactive are those of the source.

Target: Protein kinase C alpha type (Homo sapiens, UniProt P17252)
Also: in the data inactive means no Kd found up to 30 µM.

Row | Structure (SMILES) | Kd
1 | CN(C)C(=O)c1cc2cnc(Nc3ccc(N4CCNCC4)cn3)nc2n1C1CCCC1 [RIBOCICLIB] | > 30 µM (inactive)
2 | COc1cc(OC)c(/C=C/S(=O)(=O)Cc2ccc(OC)c(NCC(=O)O)c2)c(OC)c1 [RIGOSERTIB] | > 30 µM (inactive)
3 | Nc1nc(N)c2nc(-c3cccc(O)c3)c(-c3cccc(O)c3)nc2n1 [TG100-115] | > 30 µM (inactive)
4 | CC(C)Nc1cc(-c2c[nH]c(C(=O)N[C@H](CO)c3cccc(Cl)c3)c2)c(Cl)cn1 [ULIXERTINIB] | > 30 µM (inactive)

Target: Chromodomain-helicase-DNA-binding protein 4 (Homo sapiens, UniProt Q14839)

Row | Structure (SMILES) | Kd
5 | CN(C)C(=O)c1cc2cnc(Nc3ccc(N4CCNCC4)cn3)nc2n1C1CCCC1 [RIBOCICLIB] | > 30 µM (inactive)
6 | COc1cc(OC)c(/C=C/S(=O)(=O)Cc2ccc(OC)c(NCC(=O)O)c2)c(OC)c1 [RIGOSERTIB] | > 30 µM (inactive)
7 | Nc1nc(N)c2nc(-c3cccc(O)c3)c(-c3cccc(O)c3)nc2n1 [TG100-115] | > 30 µM (inactive)
8 | CC(C)Nc1cc(-c2c[nH]c(C(=O)N[C@H](CO)c3cccc(Cl)c3)c2)c(Cl)cn1 [ULIXERTINIB] | > 30 µM (inactive)

Target: T1, Phenylalanine--tRNA ligase beta subunit (Homo sapiens, UniProt Q9NSD9)
T1 sequence (Q9NSD9 whole entry): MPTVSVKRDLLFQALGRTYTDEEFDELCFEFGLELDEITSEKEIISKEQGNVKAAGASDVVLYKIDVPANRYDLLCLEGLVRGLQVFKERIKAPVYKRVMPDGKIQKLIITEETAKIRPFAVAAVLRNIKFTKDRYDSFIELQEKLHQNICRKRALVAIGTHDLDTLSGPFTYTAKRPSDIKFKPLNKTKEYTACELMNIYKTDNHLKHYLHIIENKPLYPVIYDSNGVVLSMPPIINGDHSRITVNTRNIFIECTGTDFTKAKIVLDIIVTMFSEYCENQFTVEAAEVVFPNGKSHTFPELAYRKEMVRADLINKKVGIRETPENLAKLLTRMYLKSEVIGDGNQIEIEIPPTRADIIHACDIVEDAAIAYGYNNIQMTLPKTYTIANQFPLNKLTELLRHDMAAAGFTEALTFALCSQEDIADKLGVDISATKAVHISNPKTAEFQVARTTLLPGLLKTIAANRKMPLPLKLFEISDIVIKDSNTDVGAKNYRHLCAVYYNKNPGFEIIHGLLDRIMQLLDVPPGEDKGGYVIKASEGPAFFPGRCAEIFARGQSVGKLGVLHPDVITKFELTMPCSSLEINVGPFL

Row | Structure (SMILES) | Kd
9 | CN(C)C(=O)c1cc2cnc(Nc3ccc(N4CCNCC4)cn3)nc2n1C1CCCC1 [RIBOCICLIB] | > 30 µM (inactive)
10 | COc1cc(OC)c(/C=C/S(=O)(=O)Cc2ccc(OC)c(NCC(=O)O)c2)c(OC)c1 [RIGOSERTIB] | > 30 µM (inactive)
11 | Nc1nc(N)c2nc(-c3cccc(O)c3)c(-c3cccc(O)c3)nc2n1 [TG100-115] | > 30 µM (inactive)
12 | CC(C)Nc1cc(-c2c[nH]c(C(=O)N[C@H](CO)c3cccc(Cl)c3)c2)c(Cl)cn1 [ULIXERTINIB] | > 30 µM (inactive)

Target: Myosin-14 (Homo sapiens, UniProt Q7Z406)

Row | Structure (SMILES) | Kd
13 | CC(C)Nc1cc(-c2c[nH]c(C(=O)N[C@H](CO)c3cccc(Cl)c3)c2)c(Cl)cn1 [ULIXERTINIB] | > 30 µM (inactive)

Target: 26S proteasome regulatory subunit 6B (Homo sapiens, UniProt P43686)
Sequence (P43686 whole entry): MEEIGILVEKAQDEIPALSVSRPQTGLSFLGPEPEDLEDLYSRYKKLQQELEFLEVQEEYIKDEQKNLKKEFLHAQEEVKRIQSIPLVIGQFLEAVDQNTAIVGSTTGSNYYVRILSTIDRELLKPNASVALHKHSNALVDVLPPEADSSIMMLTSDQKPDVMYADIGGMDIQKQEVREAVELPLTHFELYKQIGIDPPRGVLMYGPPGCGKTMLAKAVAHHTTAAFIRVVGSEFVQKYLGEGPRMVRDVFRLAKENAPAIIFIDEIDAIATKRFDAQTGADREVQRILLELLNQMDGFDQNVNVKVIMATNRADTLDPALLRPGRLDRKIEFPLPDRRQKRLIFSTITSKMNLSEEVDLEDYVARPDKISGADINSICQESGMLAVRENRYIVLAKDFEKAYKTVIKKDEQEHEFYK

Row | Structure (SMILES) | Kd
14 | CN(C)C(=O)c1cc2cnc(Nc3ccc(N4CCNCC4)cn3)nc2n1C1CCCC1 [RIBOCICLIB] | > 30 µM (inactive)
15 | COc1cc(OC)c(/C=C/S(=O)(=O)Cc2ccc(OC)c(NCC(=O)O)c2)c(OC)c1 [RIGOSERTIB] | > 30 µM (inactive)
16 | Nc1nc(N)c2nc(-c3cccc(O)c3)c(-c3cccc(O)c3)nc2n1 [TG100-115] | > 30 µM (inactive)
17 | CC(C)Nc1cc(-c2c[nH]c(C(=O)N[C@H](CO)c3cccc(Cl)c3)c2)c(Cl)cn1 [ULIXERTINIB] | > 30 µM (inactive)

Target: Wee1-like protein kinase (Homo sapiens, UniProt P30291)
Sequence (P30291 whole entry): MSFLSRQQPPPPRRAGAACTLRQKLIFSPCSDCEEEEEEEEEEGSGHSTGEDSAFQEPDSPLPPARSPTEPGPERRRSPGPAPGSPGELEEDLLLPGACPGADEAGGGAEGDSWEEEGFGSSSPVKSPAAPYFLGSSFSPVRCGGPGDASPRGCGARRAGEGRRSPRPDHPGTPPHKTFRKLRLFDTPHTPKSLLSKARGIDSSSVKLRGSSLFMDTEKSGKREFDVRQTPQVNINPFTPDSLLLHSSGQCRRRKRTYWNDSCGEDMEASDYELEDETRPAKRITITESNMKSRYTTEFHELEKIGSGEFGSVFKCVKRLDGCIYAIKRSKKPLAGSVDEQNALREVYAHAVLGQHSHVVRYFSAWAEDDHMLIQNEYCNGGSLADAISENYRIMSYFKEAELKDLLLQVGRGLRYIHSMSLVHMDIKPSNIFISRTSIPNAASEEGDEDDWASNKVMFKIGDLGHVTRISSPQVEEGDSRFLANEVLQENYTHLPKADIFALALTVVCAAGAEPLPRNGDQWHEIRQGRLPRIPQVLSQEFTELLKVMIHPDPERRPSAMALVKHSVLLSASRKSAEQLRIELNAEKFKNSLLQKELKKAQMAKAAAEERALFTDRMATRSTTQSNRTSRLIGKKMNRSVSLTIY

Row | Structure (SMILES) | Kd
18 | CN(C)C(=O)c1cc2cnc(Nc3ccc(N4CCNCC4)cn3)nc2n1C1CCCC1 [RIBOCICLIB] | > 30 µM (inactive)
19 | COc1cc(OC)c(/C=C/S(=O)(=O)Cc2ccc(OC)c(NCC(=O)O)c2)c(OC)c1 [RIGOSERTIB] | > 30 µM (inactive)
20 | CC(C)Nc1cc(-c2c[nH]c(C(=O)N[C@H](CO)c3cccc(Cl)c3)c2)c(Cl)cn1 [ULIXERTINIB] | > 30 µM (inactive)

Target: T2, Electron transfer flavoprotein subunit beta (Homo sapiens, UniProt P38117)
T2 sequence (P38117 whole entry): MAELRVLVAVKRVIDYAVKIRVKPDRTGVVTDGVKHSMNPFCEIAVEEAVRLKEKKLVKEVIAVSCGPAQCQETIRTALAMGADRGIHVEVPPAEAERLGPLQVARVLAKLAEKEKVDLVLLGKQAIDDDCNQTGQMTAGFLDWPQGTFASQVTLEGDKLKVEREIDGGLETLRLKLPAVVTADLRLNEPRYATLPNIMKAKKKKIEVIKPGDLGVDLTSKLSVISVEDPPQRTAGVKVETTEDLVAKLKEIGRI

Row | Structure (SMILES) | Kd
21 | CN(C)C(=O)c1cc2cnc(Nc3ccc(N4CCNCC4)cn3)nc2n1C1CCCC1 [RIBOCICLIB] | > 30 µM (inactive)

Target: T3, Tyrosine--tRNA ligase, cytoplasmic (Homo sapiens, UniProt P54577)
T3 sequence (P54577 whole entry): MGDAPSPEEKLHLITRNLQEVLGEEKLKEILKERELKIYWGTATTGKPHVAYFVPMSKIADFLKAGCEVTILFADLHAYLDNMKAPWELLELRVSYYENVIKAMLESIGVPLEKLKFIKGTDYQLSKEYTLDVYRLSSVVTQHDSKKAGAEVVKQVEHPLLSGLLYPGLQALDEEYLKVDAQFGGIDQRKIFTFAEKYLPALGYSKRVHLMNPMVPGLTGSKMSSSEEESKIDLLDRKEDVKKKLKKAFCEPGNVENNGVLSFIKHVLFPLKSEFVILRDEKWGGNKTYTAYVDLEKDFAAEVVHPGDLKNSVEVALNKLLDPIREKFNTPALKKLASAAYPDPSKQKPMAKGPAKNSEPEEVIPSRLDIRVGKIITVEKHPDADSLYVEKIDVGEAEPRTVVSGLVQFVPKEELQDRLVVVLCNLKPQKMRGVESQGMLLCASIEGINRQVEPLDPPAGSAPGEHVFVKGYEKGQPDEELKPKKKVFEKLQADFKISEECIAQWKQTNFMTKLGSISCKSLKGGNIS

Row | Structure (SMILES) | Kd
22 | CN(C)C(=O)c1cc2cnc(Nc3ccc(N4CCNCC4)cn3)nc2n1C1CCCC1 [RIBOCICLIB] | > 30 µM (inactive)
23 | COc1cc(OC)c(/C=C/S(=O)(=O)Cc2ccc(OC)c(NCC(=O)O)c2)c(OC)c1 [RIGOSERTIB] | > 30 µM (inactive)
24 | Nc1nc(N)c2nc(-c3cccc(O)c3)c(-c3cccc(O)c3)nc2n1 [TG100-115] | > 30 µM (inactive)
25 | CC(C)Nc1cc(-c2c[nH]c(C(=O)N[C@H](CO)c3cccc(Cl)c3)c2)c(Cl)cn1 [ULIXERTINIB] | > 30 µM (inactive)

Target: Ephrin type-A receptor 2 (Homo sapiens, UniProt P29317)

Row | Structure (SMILES) | Kd
26 | CN(C)C(=O)c1cc2cnc(Nc3ccc(N4CCNCC4)cn3)nc2n1C1CCCC1 [RIBOCICLIB] | > 30 µM (inactive)
27 | COc1cc(OC)c(/C=C/S(=O)(=O)Cc2ccc(OC)c(NCC(=O)O)c2)c(OC)c1 [RIGOSERTIB] | > 30 µM (inactive)
28 | CC(C)Nc1cc(-c2c[nH]c(C(=O)N[C@H](CO)c3cccc(Cl)c3)c2)c(Cl)cn1 [ULIXERTINIB] | > 30 µM (inactive)

Target: Mitogen-activated protein kinase kinase kinase 4 (Homo sapiens, UniProt Q9Y6R4)
Sequence (Q9Y6R4 whole entry): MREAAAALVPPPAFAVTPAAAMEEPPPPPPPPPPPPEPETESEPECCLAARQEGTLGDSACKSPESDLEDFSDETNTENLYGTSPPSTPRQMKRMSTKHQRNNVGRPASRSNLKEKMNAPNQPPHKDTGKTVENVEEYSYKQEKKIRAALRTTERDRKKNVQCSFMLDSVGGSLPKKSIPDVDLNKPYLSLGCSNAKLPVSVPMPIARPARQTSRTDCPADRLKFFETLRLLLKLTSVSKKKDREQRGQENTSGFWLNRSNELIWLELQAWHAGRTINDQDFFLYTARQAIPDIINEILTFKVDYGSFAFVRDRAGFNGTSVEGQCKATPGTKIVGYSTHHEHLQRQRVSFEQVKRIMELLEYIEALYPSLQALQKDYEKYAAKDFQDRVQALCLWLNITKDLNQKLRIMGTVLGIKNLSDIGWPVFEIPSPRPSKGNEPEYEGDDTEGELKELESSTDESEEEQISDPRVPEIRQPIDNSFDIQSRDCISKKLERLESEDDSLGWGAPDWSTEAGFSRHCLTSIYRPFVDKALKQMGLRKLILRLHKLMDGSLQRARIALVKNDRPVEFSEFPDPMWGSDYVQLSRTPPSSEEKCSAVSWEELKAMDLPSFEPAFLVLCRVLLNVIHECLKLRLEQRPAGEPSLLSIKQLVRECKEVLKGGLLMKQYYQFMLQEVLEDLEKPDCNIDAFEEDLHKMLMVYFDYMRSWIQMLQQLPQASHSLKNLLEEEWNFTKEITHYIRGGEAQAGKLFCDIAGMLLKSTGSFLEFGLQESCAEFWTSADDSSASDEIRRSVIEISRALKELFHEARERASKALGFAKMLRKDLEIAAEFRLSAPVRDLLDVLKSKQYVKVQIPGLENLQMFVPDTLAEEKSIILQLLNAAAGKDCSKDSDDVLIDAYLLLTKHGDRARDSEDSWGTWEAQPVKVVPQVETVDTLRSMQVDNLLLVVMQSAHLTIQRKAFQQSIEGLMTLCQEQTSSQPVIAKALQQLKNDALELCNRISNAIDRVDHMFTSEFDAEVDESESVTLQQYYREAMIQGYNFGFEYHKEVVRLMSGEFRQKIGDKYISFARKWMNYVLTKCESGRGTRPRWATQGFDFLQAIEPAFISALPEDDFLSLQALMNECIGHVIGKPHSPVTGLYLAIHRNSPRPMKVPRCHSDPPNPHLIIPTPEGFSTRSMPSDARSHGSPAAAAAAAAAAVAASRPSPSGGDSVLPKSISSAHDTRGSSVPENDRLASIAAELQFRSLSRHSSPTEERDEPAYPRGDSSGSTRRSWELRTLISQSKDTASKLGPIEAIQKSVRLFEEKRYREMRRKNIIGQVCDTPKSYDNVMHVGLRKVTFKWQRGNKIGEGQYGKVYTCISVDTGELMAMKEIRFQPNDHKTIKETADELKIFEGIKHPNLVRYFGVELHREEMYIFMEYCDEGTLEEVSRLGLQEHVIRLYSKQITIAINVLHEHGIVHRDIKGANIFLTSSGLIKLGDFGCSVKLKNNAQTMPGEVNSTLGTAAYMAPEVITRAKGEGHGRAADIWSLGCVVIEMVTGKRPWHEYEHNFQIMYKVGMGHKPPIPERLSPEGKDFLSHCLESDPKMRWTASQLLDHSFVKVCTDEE

Row | Structure (SMILES) | Kd
29 | CN(C)C(=O)c1cc2cnc(Nc3ccc(N4CCNCC4)cn3)nc2n1C1CCCC1 [RIBOCICLIB] | > 30 µM (inactive)
30 | COc1cc(OC)c(/C=C/S(=O)(=O)Cc2ccc(OC)c(NCC(=O)O)c2)c(OC)c1 [RIGOSERTIB] | > 30 µM (inactive)
31 | CC(C)Nc1cc(-c2c[nH]c(C(=O)N[C@H](CO)c3cccc(Cl)c3)c2)c(Cl)cn1 [ULIXERTINIB] | > 30 µM (inactive)

Target: Putative heat shock protein HSP 90-beta 2 (Homo sapiens, UniProt Q58FF8)
Sequence (Q58FF8 whole entry): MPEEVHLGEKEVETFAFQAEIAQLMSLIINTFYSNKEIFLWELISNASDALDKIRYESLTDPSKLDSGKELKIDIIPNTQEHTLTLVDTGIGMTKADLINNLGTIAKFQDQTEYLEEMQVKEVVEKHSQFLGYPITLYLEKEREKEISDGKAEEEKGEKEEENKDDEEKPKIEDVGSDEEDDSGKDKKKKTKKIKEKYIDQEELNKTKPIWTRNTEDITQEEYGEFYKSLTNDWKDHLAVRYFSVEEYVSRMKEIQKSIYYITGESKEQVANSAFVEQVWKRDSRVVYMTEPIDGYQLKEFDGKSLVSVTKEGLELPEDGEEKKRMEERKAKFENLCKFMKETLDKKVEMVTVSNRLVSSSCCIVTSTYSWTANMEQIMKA

Row | Structure (SMILES) | Kd
32 | CN(C)C(=O)c1cc2cnc(Nc3ccc(N4CCNCC4)cn3)nc2n1C1CCCC1 [RIBOCICLIB] | > 30 µM (inactive)
33 | COc1cc(OC)c(/C=C/S(=O)(=O)Cc2ccc(OC)c(NCC(=O)O)c2)c(OC)c1 [RIGOSERTIB] | > 30 µM (inactive)
34 | Nc1nc(N)c2nc(-c3cccc(O)c3)c(-c3cccc(O)c3)nc2n1 [TG100-115] | > 30 µM (inactive)
35 | CC(C)Nc1cc(-c2c[nH]c(C(=O)N[C@H](CO)c3cccc(Cl)c3)c2)c(Cl)cn1 [ULIXERTINIB] | > 30 µM (inactive)

Target: Inosine-5'-monophosphate dehydrogenase 2 (Homo sapiens, UniProt P12268)

Row | Structure (SMILES) | Kd
36 | COc1cc(OC)c(/C=C/S(=O)(=O)Cc2ccc(OC)c(NCC(=O)O)c2)c(OC)c1 [RIGOSERTIB] | > 30 µM (inactive)
37 | Nc1nc(N)c2nc(-c3cccc(O)c3)c(-c3cccc(O)c3)nc2n1 [TG100-115] | > 30 µM (inactive)
38 | CC(C)Nc1cc(-c2c[nH]c(C(=O)N[C@H](CO)c3cccc(Cl)c3)c2)c(Cl)cn1 [ULIXERTINIB] | > 30 µM (inactive)

Target: Interleukin-1 receptor-associated kinase 1 (Homo sapiens, UniProt P51617)
Sequence (P51617 whole entry): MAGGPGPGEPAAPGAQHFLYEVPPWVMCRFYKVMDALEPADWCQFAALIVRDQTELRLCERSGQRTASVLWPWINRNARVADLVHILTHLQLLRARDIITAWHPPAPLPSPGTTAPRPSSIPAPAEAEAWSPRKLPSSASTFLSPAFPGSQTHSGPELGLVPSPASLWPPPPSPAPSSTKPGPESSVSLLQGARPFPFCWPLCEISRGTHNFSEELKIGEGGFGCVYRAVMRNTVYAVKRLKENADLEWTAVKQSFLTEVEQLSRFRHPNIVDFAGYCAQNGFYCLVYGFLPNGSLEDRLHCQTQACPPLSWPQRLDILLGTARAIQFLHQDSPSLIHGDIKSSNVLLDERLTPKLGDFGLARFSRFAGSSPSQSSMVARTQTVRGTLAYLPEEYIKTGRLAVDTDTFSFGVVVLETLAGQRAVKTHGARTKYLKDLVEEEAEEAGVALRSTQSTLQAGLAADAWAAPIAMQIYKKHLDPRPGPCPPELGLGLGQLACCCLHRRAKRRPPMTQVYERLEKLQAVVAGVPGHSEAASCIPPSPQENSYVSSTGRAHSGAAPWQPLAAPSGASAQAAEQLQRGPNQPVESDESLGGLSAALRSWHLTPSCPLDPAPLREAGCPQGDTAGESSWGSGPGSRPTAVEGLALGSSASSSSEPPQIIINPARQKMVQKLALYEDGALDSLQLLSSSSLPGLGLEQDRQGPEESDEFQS

Row | Structure (SMILES) | Kd
39 | CN(C)C(=O)c1cc2cnc(Nc3ccc(N4CCNCC4)cn3)nc2n1C1CCCC1 [RIBOCICLIB] | > 30 µM (inactive)
40 | COc1cc(OC)c(/C=C/S(=O)(=O)Cc2ccc(OC)c(NCC(=O)O)c2)c(OC)c1 [RIGOSERTIB] | > 30 µM (inactive)
41 | CC(C)Nc1cc(-c2c[nH]c(C(=O)N[C@H](CO)c3cccc(Cl)c3)c2)c(Cl)cn1 [ULIXERTINIB] | > 30 µM (inactive)

Target: T4, Serine/threonine-protein kinase STK11 (Homo sapiens, UniProt Q15831)
T4 sequence (Q15831 whole entry): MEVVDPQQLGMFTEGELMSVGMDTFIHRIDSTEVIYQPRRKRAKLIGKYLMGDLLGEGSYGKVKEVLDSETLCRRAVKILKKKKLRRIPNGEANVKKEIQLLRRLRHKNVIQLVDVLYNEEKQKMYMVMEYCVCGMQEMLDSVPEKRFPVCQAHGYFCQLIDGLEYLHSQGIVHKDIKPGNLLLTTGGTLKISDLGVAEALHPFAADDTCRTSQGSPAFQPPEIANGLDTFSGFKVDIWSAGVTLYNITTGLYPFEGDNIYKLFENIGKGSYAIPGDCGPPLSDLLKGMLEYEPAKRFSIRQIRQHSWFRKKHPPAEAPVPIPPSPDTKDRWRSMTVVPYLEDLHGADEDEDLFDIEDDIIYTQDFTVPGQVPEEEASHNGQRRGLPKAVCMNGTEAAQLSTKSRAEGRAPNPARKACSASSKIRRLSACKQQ

Row | Structure (SMILES) | Kd
42 | CN(C)C(=O)c1cc2cnc(Nc3ccc(N4CCNCC4)cn3)nc2n1C1CCCC1 [RIBOCICLIB] | > 30 µM (inactive)
43 | COc1cc(OC)c(/C=C/S(=O)(=O)Cc2ccc(OC)c(NCC(=O)O)c2)c(OC)c1 [RIGOSERTIB] | > 30 µM (inactive)
44 | CC(C)Nc1cc(-c2c[nH]c(C(=O)N[C@H](CO)c3cccc(Cl)c3)c2)c(Cl)cn1 [ULIXERTINIB] | > 30 µM (inactive)

Target: Adenosine kinase (Homo sapiens, UniProt P55263)
Sequence (P55263 whole entry): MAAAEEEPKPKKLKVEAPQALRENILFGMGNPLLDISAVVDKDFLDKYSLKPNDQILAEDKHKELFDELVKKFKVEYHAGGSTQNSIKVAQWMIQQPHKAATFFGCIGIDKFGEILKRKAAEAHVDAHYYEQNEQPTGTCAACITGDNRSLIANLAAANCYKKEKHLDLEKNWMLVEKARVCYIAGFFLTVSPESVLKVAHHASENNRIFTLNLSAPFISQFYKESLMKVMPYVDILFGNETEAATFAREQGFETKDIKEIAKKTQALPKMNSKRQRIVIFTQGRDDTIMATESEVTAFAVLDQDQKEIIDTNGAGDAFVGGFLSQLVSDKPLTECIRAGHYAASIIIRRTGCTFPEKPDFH

Row | Structure (SMILES) | Kd
45 | CN(C)C(=O)c1cc2cnc(Nc3ccc(N4CCNCC4)cn3)nc2n1C1CCCC1 [RIBOCICLIB] | > 30 µM (inactive)
46 | COc1cc(OC)c(/C=C/S(=O)(=O)Cc2ccc(OC)c(NCC(=O)O)c2)c(OC)c1 [RIGOSERTIB] | > 30 µM (inactive)
47 | Nc1nc(N)c2nc(-c3cccc(O)c3)c(-c3cccc(O)c3)nc2n1 [TG100-115] | > 30 µM (inactive)
48 | CC(C)Nc1cc(-c2c[nH]c(C(=O)N[C@H](CO)c3cccc(Cl)c3)c2)c(Cl)cn1 [ULIXERTINIB] | > 30 µM (inactive)
